Measurements published in patent publication US9670214B2, “Small molecule myristate inhibitors of Bcr-abl and methods of use” (DANA-FARBER CANCER INSTITUTE, INC., priority 2007, dated 2017).

Columns and labels:
[1] = biological target: Bcr-abl (Ba/F3.p210 cells) (Homo sapiens, UniProt P00519); assay: Proliferation assay (MTT), wild type Bcr-abl expressing Ba/F3 cells; assay type: cell-based, murine; conditions: 48 h, drug concentrations 0.005-10 μM
From the text: (§1) Wild type Bcr-abl expressing 32D (32D.p210) and Ba/F3 (Ba/F3.p210) cells, and mutant Bcr-abl expressing cell lines Ba/F3.p210^G250E, Ba/F3.p210^E255V, Ba/F3.p210^T315I, Ba/F3.p210^F317L and Ba/F3.p210^M351T, as well as Ba/F3 cells transformed with Flt-3-ITD kinase. Additional assays included Ba/F3 cells expressing the fusion protein kinases TEL-PDGFRβ, TEL-JAK1, NPM-ALK, TEL-cKit, Tel-Bmx, Tel-FGR3, Tel-Lck and Ba/F3.TPR-met cells. All the above cell lines were maintained in RPMI-1640 medium with L-Glutamine, 10% FBS and 1 mg/ml geneticin (Gibco).
(§2) Cells (0.3-0.6×10^6/ml) were plated in duplicate or triplicate in 96-well plates containing increasing drug concentrations (0.005-10 μM). After incubation at 37° C. in 5% CO2 for 48 h, the effect of the compounds on cell viability was determined by MTT (Promega) colorimetric dye reduction method. Inhibition of cell proliferation was calculated as a percentage of growth of DMSO treated cells, and IC50 values were determined with Microsoft Excel XLfit3.

[2] = test system: Ba/F3 cells (IL-3 dependent murine pro-B cell line); assay: Proliferation assay (MTT), parental Ba/F3 cells; assay type: cell-based; conditions: Mus musculus, 48 h, drug concentrations 0.005-10 μM, read-out: BaF3
Protocol: Interleukin-3 (IL-3) dependent murine pro-B cell line, Ba/F3, and murine myeloid precursor cell line, 32D, were maintained in RPMI-1640 medium supplemented with L-Glutamine, 10% FBS and 10 U/ml recombinant murine IL-3 (Roche). Mo7e human megakarioblastic cell line was grown in RPMI-1640 medium supplemented with L-Glutamine, 20% FBS and 5 ng/ml recombinant human granulocyte macrophage cell stimulating factor (GM-CSF) (R&D Systems) or 200 ng/ml stem cell factor (SCF) (Biosource).
as §2

[3] = biological target: Bcr-abl T315I (Ba/F3.p210^T315I cells) (Homo sapiens, UniProt P00519, T315I, cells depend on it); assay: Proliferation assay (MTT), T315I mutant Bcr-abl expressing Ba/F3 cells; assay type: cell-based, murine; conditions: 48 h, drug concentrations 0.005-10 μM
From the text: as §1, §2

Compound | IC50 [1] [µM] | IC50 [2] [µM] | IC50 [3] [µM]
FC(F)(F)Oc1ccc(Nc2ncnc3[nH]ccc23)cc1 | > 10 | > 10 | > 10
Cn1ccc2c(Nc3ccc(OC(F)(F)F)cc3)ncnc21 | 6.89 | > 10 | > 10
FC(F)(F)Oc1ccc(Nc2ncnc3c2ccn3CCN2CCOCC2)cc1 | 0.38 | > 10 | 4.27
NC(=O)CCn1ccc2c(Nc3ccc(OC(F)(F)F)cc3)ncnc21 | 0.49 | > 10 | 6.42
CCNC(=O)CCn1ccc2c(Nc3ccc(OC(F)(F)F)cc3)ncnc21 | 2.42 | > 10 | 9.29
O=C(CCn1ccc2c(Nc3ccc(OC(F)(F)F)cc3)ncnc21)NCCN1CCOCC1 | 1.06 | > 10 | 3.14
CC(C)C(CCO)NC(=O)CCn1ccc2c(Nc3ccc(OC(F)(F)F)cc3)ncnc21 (stereo not drawn) | 0.86 | > 10 | 2.07
CCOC(=O)c1cc2c(Nc3ccc(OC(F)(F)F)cc3)ncnc2n1C | 1.5 | > 10 | > 10
Cn1c(C(=O)N2CCC(C(N)=O)CC2)cc2c(Nc3ccc(OC(F)(F)F)cc3)ncnc21 | 0.82 | > 10 | > 10
Cn1c(C(=O)N2CCCC(C(N)=O)C2)cc2c(Nc3ccc(OC(F)(F)F)cc3)ncnc21 (stereo not drawn) | 1.98 | > 10 | > 10
Cn1c(CO)cc2c(Nc3ccc(OC(F)(F)F)cc3)ncnc21 | 0.245 | > 10 | > 10
Cn1c(C(N)=O)cc2c(Nc3ccc(OC(F)(F)F)cc3)ncnc21 | 0.62 | > 10 | > 10
CCN1CCCC1NC(=O)c1cc2c(Nc3ccc(OC(F)(F)F)cc3)ncnc2n1C (stereo not drawn) | 2.95 | 5.12 | 8.47
Cn1c(C(=O)NC(=N)N)cc2c(Nc3ccc(OC(F)(F)F)cc3)ncnc21 | > 10 | > 10 | > 10
CCN(CC)CCCC(C)NC(=O)c1cc2c(Nc3ccc(OC(F)(F)F)cc3)ncnc2n1C (stereo not drawn) | 1.18 | 4.12 | 4
COC(=O)c1ccc2c(Nc3ccc(OC(F)(F)F)cc3)ncnc2c1 | 0.214 | 6.62 | 1.91
OCc1ccc2c(Nc3ccc(OC(F)(F)F)cc3)ncnc2c1 | 0.508 | > 10 | > 10
CCN(CC)Cc1ccc2c(Nc3ccc(OC(F)(F)F)cc3)ncnc2c1 | 2.04 | > 10 | > 10

Compound | IC50 [1] [µM] | IC50 [2] [µM] | IC50 [3] [µM]
CCN(CC)C(=O)c1ccc2c(Nc3ccc(OC(F)(F)F)cc3)ncnc2c1 | 0.742 | > 10 | 3.17
O=C(c1ccoc1)N1CCN(C(=O)c2ccc3c(Nc4ccc(OC(F)(F)F)cc4)ncnc3c2)CC1 | 2.04 | > 10 | 3.9
O=C(Nc1cccc(C(F)(F)F)c1)c1ccc2c(Nc3ccc(OC(F)(F)F)cc3)ncnc2c1 | 1.28 | 4.5 | 1.56
COCCCNC(=O)c1ccc2c(Nc3ccc(OC(F)(F)F)cc3)ncnc2c1 | 4.09 | > 10 | > 10
CCNNC(=O)c1ccc2c(Nc3ccc(OC(F)(F)F)cc3)ncnc2c1 | 1.88 | 6.51 | 6.3
COC1CCN(C(=O)c2ccc3c(Nc4ccc(OC(F)(F)F)cc4)ncnc3c2)CC1 | 0.639 | > 10 | 0.895
O=C(c1ccc2c(Nc3ccc(OC(F)(F)F)cc3)ncnc2c1)N1CCC(O)C1 (stereo not drawn) | 1.17 | > 10 | > 10
O=C(c1ccc2c(Nc3ccc(OC(F)(F)F)cc3)ncnc2c1)N1CCCC1CO (stereo not drawn) | 1.65 | > 10 | > 10
CN(CCO)C(=O)c1ccc2c(Nc3ccc(OC(F)(F)F)cc3)ncnc2c1 | 2.66 | > 10 | > 10
CN1CCC(N(C)C(=O)c2ccc3c(Nc4ccc(OC(F)(F)F)cc4)ncnc3c2)CC1 | 0.689 | 5.99 | 5
Cc1ccc(S(=O)(=O)NC(=O)c2ccc3c(Nc4ccc(OC(F)(F)F)cc4)ncnc3c2)cc1 | > 10 | > 10 | > 10
CC(C)(C)S(=O)(=O)NC(=O)c1ccc2c(Nc3ccc(OC(F)(F)F)cc3)ncnc2c1 | > 10 | > 10 | > 10
CC1CN(C(=O)c2ccc3c(Nc4ccc(OC(F)(F)F)cc4)ncnc3c2)CC(C)N1 (stereo not drawn) | 2.14 | 7.62 | > 10
CNCCN(C)C(=O)c1ccc2c(Nc3ccc(OC(F)(F)F)cc3)ncnc2c1 | 5.98 | > 10 | > 10
O=C(NCCO)c1ccc2c(Nc3ccc(OC(F)(F)F)cc3)ncnc2c1 | 2.15 | > 10 | > 10
O=C(c1ccc2c(Nc3ccc(OC(F)(F)F)cc3)ncnc2c1)N1CCC2(CC1)C(=O)NCN2c1ccccc1 | 1.48 | 6.89 | 8.32
NC(=O)C1CCCN(C(=O)c2ccc3c(Nc4ccc(OC(F)(F)F)cc4)ncnc3c2)C1 (stereo not drawn) | 3.09 | > 10 | > 10
CCOC(=O)C1CCCN(C(=O)c2ccc3c(Nc4ccc(OC(F)(F)F)cc4)ncnc3c2)C1 (stereo not drawn) | 5.55 | 8.84 | > 10
